In patent publication US8536195B2, “Bicyclic derivatives as modulators of ion channels” (Vertex Pharmaceuticals Incorporated, priority 2005, dated 2013):
Read-outs that look alike come from different tables or passages of the source.

Legend:
NaV1.3 [1] = biological target: T1, NaV1.3 (Homo sapiens, UniProt Q9NY46); conditions: read-out: TTX IC50; cited from earlier work
Target sequence in this assay (Q9NY46 whole entry, looked up): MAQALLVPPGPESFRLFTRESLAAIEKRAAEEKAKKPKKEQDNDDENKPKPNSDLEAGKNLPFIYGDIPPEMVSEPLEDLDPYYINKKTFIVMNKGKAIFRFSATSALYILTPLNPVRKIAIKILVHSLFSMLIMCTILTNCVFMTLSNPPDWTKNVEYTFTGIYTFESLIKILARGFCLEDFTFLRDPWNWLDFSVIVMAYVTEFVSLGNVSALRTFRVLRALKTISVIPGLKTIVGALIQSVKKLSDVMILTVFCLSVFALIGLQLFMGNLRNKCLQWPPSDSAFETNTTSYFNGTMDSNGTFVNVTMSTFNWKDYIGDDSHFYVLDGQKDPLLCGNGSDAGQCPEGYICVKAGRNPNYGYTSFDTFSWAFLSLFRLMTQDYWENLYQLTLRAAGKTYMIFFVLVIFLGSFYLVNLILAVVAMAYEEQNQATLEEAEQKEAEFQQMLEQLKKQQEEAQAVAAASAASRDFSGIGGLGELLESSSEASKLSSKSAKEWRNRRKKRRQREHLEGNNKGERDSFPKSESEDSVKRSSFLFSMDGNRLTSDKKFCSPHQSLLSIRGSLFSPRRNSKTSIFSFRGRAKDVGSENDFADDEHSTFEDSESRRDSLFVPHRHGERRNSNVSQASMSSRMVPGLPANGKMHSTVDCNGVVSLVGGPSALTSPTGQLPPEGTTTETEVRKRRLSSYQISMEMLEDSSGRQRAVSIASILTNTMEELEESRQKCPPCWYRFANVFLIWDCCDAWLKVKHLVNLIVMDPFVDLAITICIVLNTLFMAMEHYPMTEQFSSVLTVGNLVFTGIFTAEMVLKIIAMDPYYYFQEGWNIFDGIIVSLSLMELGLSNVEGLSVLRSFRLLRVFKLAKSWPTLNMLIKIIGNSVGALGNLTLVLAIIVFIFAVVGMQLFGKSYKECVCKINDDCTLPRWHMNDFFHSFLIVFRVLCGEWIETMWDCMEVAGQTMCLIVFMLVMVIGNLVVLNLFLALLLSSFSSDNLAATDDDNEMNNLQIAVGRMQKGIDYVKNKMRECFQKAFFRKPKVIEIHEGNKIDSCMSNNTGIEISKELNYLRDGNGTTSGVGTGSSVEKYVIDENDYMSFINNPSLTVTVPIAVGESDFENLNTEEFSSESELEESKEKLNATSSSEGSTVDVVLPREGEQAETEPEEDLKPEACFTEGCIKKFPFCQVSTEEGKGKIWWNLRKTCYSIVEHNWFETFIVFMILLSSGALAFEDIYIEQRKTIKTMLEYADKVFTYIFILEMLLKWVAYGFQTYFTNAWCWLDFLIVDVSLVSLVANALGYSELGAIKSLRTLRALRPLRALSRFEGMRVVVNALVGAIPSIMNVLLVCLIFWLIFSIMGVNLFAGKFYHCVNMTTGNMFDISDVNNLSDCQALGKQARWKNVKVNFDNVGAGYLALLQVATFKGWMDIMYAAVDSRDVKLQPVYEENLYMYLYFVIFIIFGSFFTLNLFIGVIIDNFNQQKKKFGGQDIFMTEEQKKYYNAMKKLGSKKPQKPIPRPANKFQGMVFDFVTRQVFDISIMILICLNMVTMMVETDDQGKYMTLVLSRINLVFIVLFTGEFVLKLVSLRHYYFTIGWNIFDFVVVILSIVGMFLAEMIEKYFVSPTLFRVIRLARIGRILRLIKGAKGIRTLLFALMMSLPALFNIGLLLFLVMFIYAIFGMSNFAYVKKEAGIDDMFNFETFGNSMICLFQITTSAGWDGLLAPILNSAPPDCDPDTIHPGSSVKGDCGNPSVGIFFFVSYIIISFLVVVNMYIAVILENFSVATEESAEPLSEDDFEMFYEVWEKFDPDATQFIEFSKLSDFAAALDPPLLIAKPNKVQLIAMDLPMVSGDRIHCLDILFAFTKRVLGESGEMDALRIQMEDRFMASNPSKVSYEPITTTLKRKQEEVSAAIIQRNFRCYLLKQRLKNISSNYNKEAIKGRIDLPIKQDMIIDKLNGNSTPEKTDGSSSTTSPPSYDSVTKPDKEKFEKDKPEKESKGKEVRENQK

NaV1.8 = NaV1.8 (Homo sapiens, UniProt Q9Y5Y9); conditions: read-out: TTX IC50; cited from earlier work
NaV1.3 [2] = biological target: T1, NaV1.3; test: Activity against NaV 1.3 channel (VIPR optical membrane potential assay with electrical stimulation); type: cell-based; design: expressed in transfected cells; host or cells: HEK293
Protocol: Compounds of the invention are useful as antagonists of voltage-gated sodium ion channels. Antagonist properties of test compounds were assessed as follows. Cells expressing the NaV of interest were placed into microtiter plates. After an incubation period, the cells were stained with fluorescent dyes sensitive to the transmembrane potential. The test compounds were added to the microtiter plate. The cells were stimulated with either a chemical or electrical means to evoke a NaV dependent membrane potential change from unblocked channels, which was detected and measured with trans-membrane potential-sensitive dyes. Antagonists were detected as a decreased membrane potential response to the stimulus. The optical membrane potential assay utilized voltage-sensitive FRET sensors described by Gonzalez and Tsien (See Gonzalez, J. E. and R. Y. Tsien (1995) “Voltage sensing by fluorescence resonance energy transfer in single cells” Biophys J 69(4): 1272-80, and Gonzalez, J. E. and R. Y. Tsien (1997) “Improved indicators of cell membrane potential that use fluorescence resonance energy transfer” Chem Biol 4(4): 269-77) in combination with instrumentation for measuring fluorescence changes such as the Voltage/Ion Probe Reader (VIPR®) (See Gonzalez, J. E., K. Oades, et al. (1999) “Cell-based assays and instrumentation for screening ion-channel targets” Drug Discov Today 4(9): 431-439).
The following is an example of how NaV1.3 inhibition activity is measured using the optical membrane potential method #2. Other subtypes are performed in an analogous mode in a cell line expressing the NaV of interest.
HEK293 cells stably expressing NaV1.3 are plated into 96-well microtiter plates. After an appropriate incubation period, the cells are stained with the voltage sensitive dyes CC2-DMPE/DiSBAC2(3) as follows.
2×CC2-DMPE=20 μM CC2-DMPE: 10 mM CC2-DMPE is vortexed with an equivalent volume of 10% pluronic, followed by vortexing in required amount of HBSS containing 10 mM HEPES. Each cell plate will require 5 mL of 2×CC2-DMPE. 50 μL of 2×CC2-DMPE is to wells containing washed cells, resulting in a 10 μM final staining concentration. The cells are stained for 30 minutes in the dark at RT.
2×DISBAC2(3) with ABSC1=6 μM DISBAC2(3) and 1 mM ABSC1: The required amount of 10 mM DISBAC2(3) is added to a 50 ml conical tube and mixed with 1 μL 10% pluronic for each mL of solution to be made and vortexed together. Then HBSS/HEPES is added to make up 2× solution. Finally, the ABSC1 is added.
The 2×DiSBAC2(3) solution can be used to solvate compound plates. Note that compound plates are made at 2× drug concentration. Wash stained plate again, leaving residual volume of 50 μL. Add 50 uL/well of the 2×DiSBAC2(3) w/ABSC1. Stain for 30 minutes in the dark at RT.
The electrical stimulation instrument and methods of use are described in ION Channel Assay Methods PCT/US01/21652, herein incorporated by reference. The instrument comprises a microtiter plate handler, an optical system for exciting the coumarin dye while simultaneously recording the coumarin and oxonol emissions, a waveform generator, a current- or voltage-controlled amplifier, and a device for inserting electrodes in well. Under integrated computer control, this instrument passes user-programmed electrical stimulus protocols to cells within the wells of the microtiter plate.
Insert or use electrodes into each well to be assayed.
Use the current-controlled amplifier to deliver stimulation wave pulses for 3 s. Two seconds of pre-stimulus recording are performed to obtain the un-stimulated intensities. Five seconds of post-stimulation recording are performed to examine the relaxation to the resting state.
Data are analyzed and reported as normalized ratios of background-subtracted emission intensities measured in the 460 nm and 580 nm channels. Background intensities are then subtracted from each assay channel. […]
Target sequence in this assay (Q9NY46 whole entry): as the sequence (Q9NY46 whole entry, looked up) above

[3] = neuropathic pain, modest efficacy; cited from earlier work

Sequence of NaV1.8 (Q9Y5Y9 whole entry, looked up): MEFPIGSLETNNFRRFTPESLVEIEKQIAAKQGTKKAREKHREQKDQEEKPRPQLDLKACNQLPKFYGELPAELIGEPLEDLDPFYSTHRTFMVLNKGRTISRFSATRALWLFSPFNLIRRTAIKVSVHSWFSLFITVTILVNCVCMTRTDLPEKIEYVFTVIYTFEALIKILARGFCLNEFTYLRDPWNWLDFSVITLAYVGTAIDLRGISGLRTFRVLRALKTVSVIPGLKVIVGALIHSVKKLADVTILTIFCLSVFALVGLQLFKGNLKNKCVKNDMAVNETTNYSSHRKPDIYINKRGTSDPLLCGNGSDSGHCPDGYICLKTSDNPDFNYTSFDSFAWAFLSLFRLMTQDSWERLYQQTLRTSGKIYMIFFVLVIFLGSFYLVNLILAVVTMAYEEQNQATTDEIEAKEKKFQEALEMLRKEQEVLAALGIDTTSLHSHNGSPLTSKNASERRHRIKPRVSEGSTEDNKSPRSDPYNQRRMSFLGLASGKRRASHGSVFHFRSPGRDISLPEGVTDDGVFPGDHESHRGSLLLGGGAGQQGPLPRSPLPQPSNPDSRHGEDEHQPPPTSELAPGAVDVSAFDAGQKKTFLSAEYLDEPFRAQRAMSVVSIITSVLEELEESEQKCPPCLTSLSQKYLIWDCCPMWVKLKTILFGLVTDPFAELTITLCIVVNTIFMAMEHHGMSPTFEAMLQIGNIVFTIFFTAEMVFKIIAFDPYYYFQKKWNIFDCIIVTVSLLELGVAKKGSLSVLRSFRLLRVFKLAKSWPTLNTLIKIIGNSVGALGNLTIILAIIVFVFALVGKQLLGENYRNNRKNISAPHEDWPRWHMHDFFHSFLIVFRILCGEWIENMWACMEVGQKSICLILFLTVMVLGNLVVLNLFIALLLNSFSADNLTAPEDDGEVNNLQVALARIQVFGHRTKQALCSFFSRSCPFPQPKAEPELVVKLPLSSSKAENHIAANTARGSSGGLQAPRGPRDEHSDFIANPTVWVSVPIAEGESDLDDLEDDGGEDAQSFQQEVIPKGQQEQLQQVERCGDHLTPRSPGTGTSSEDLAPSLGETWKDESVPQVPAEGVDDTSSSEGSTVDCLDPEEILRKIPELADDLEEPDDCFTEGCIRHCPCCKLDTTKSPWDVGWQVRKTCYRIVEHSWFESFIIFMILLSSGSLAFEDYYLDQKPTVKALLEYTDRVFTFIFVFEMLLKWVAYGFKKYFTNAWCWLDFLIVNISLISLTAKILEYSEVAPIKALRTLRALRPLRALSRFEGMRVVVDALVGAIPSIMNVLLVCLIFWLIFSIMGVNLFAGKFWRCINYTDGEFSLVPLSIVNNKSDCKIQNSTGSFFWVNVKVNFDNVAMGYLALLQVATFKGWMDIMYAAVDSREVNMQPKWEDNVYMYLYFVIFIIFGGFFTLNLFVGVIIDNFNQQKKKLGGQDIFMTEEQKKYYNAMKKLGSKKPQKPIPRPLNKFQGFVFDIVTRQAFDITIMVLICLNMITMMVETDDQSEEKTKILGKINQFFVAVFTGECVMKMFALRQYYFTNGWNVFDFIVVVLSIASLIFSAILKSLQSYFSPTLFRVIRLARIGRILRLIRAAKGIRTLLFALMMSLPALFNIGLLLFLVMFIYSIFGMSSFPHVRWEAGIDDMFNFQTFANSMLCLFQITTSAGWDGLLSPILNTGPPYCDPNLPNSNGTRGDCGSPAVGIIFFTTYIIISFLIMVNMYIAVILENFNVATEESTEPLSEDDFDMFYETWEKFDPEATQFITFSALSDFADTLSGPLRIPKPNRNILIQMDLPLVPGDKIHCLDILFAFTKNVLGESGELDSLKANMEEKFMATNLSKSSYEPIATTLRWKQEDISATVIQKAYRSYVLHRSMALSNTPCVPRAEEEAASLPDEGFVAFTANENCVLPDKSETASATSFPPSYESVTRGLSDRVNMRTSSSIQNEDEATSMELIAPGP

SMILES | IC50 (NaV1.3 [2]) [µM] | also measured
NC1=N[C@H](O)[C@H]2[C@H]3O[C@]4(O)O[C@@H]([C@@H](O)[C@@]2(N1)[C@@H]4O)[C@]3(O)CO [TTX, tetrodotoxin] | – | IC50 (NaV1.3 [1]): 0.015 µM; IC50 (NaV1.8): > 50 µM
O=C1Nc2ccc(S(=O)(=O)Nc3nc[nH]n3)cc2CC1CCOc1ccc(Cl)cc1Cl (stereo not shown) [Compound 14] | 5 to 20 | –
O=C1Nc2ccc(S(=O)(=O)Nc3nnc(C4CC4)s3)cc2CC1CCOc1ccc(Cl)cc1Cl (stereo not shown) [Compound 9] | 5 to 20 | –
O=C1Nc2ccc(S(=O)(=O)Nc3nnc(-c4ccccc4)s3)cc2CC1CCOc1ccc(Cl)cc1Cl (stereo not shown) [Compound 2] | 5 to 20 | –
O=C1Nc2ccc(S(=O)(=O)Nc3nc(-c4ccccc4)ns3)cc2CC1CCOc1ccc(Cl)cc1Cl (stereo not shown) [Compound 12] | 5 to 20 | –
O=C1Nc2ccc(S(=O)(=O)Nc3ncccn3)cc2CC1CCOc1ccc(Cl)cc1Cl (stereo not shown) [Compound 15] | 5 to 20 | –
O=C1Nc2ccc(S(=O)(=O)Nc3nccs3)cc2CC1CCOc1ccc(Cl)cc1Cl (stereo not shown) [Compound 3] | 5 to 20 | –
O=C1Nc2ccc(S(=O)(=O)Nc3nncs3)cc2CC1CCOc1ccc(Cl)cc1Cl (stereo not shown) [Compound 1] | 5 to 20 | –
Cc1cnc(NS(=O)(=O)c2ccc3c(c2)CC(CCOc2ccc(Cl)cc2Cl)C(=O)N3)s1 (stereo not shown) [Compound 7] | 5 to 20 | –
COc1nc(NS(=O)(=O)c2ccc3c(c2)CC(CCOc2ccc(Cl)cc2Cl)C(=O)N3)ns1 (stereo not shown) [Compound 13] | 5 to 20 | –
Cc1nnc(NS(=O)(=O)c2ccc3c(c2)CC(CCOc2ccc(Cl)cc2Cl)C(=O)N3)s1 (stereo not shown) [Compound 11, 3-[2-(2,4-Dichloro-phenoxy)-ethyl]-2-oxo-1,2,3,4-tetrahydro-quinoline-6-sulfonic acid (5-methyl-[1,3,4]thiadiazol-2-yl)-amide] | 5 to 20 | –
O=C1Nc2ccc(S(=O)(=O)Nc3nc4ccccc4s3)cc2CC1CCOc1ccc(Cl)cc1Cl (stereo not shown) [Compound 5, 3-[2-(2,4-Dichloro-phenoxy)-ethyl]-2-oxo-1,2,3,4-tetrahydro-quinoline-6-sulfonic acid benzothiazol-2-ylamide] | 5 to 20 | –
O=C1Nc2ccc(S(=O)(=O)Nc3ccccn3)cc2CC1CCOc1ccc(Cl)cc1Cl (stereo not shown) [Compound 8] | 5 to 20 | –
Cc1ccnc(NS(=O)(=O)c2ccc3c(c2)CC(CCOc2ccc(Cl)cc2Cl)C(=O)N3)n1 (stereo not shown) [Compound 10, 3-[2-(2,4-Dichloro-phenoxy)-ethyl]-2-oxo-1,2,3,4-tetrahydro-quinoline-6-sulfonic acid (4-methyl-pyrimidin-2-yl)-amide] | 5 to 20 | –
Cc1csc(NS(=O)(=O)c2ccc3c(c2)CC(CCOc2ccc(Cl)cc2Cl)C(=O)N3)n1 (stereo not shown) [Compound 16] | 5 to 20 | –
NCC1(CC(=O)O)CCCCC1 [Gabapentin] | – | share of patients in which it works [3]: 60%
Cc1cc(C)nc(NS(=O)(=O)c2ccc3c(c2)CC(CCOc2ccc(Cl)cc2Cl)C(=O)N3)n1 (stereo not shown) [Compound 4] | 5 to 20 | –
O=C1Nc2ccc(S(=O)(=O)Nc3cnsn3)cc2CC1CCOc1ccc(Cl)cc1Cl (stereo not shown) [Compound 6] | 5 to 20 | –
